± gives the standard deviation of the averaged measurements.
Assays:
Experiment in all cases: level (log10 ratio to DMSO vehicle control); higher = higher biomarker level / cell amount than vehicle control
[1] = compound: O=C(O)C=C(C(F)(F)F)C(F)(F)F [3,3-Bis(trifluoromethyl)-2-propenoic acid] (in DMSO)
Method: (§1)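 BioMAP Diversity Plus panel of 12 human primary cell co-culture systems (3C, 4H, LPS, SAg, BT, BF4T, BE3C, CASM3C, HDF3CGF, KF3CT, MyoF, Mphg). Compounds were added 1 h before stimulation and left for 24 h (MyoF 48 h; BT 72 h for soluble read-outs or 6 d for IgG). Biomarkers were read by ELISA, cytotoxicity by SRB, PBMC viability and proliferation by Alamar Blue. Each well value was divided by the mean of 8 DMSO control wells on the same plate and log10 transformed; duplicate blinded samples were tested at 4 concentrations.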

[2] = compound: O=C(O)C(F)(F)C(F)(F)C(F)(F)OC(F)(F)F [Perfluoro(4-methoxybutanoic) acid] (in DMSO)
Method: as §1

[3] = compound: O=C(O)C(F)(OC(F)(F)C(F)(OC(F)(F)C(F)(OC(F)(F)C(F)(F)C(F)(F)F)C(F)(F)F)C(F)(F)F)C(F)(F)F [Perfluoro-(2,5,8-trimethyl-3,6,9-trioxadodecanoic)acid] (in DMSO)
Method: as §1

[4] = compound: OCCC(F)(F)C(F)(F)C(F)(F)C(F)(F)F [4:2 Fluorotelomer alcohol] (in DMSO)
Method: as §1

[5] = compound: OCC(F)(F)C(F)(F)C(F)(F)C(F)(F)C(F)(F)C(F)(F)CO [1H,1H,8H,8H-Perfluorooctane-1,8-diol] (in DMSO)
Method: as §1

[6] = compound: O=C(O)CCC(F)(C(F)(F)F)C(F)(F)F [4,4-bis(Trifluoromethyl)-4-fluoropropanoic acid] (in DMSO)
Method: as §1

Test System	level (log10) ([1]; 6700 nM)	level (log10) ([1]; 20000 nM)	level (log10) ([1]; 60000 nM)	level (log10) ([2]; 6700 nM)	level (log10) ([2]; 20000 nM)	level (log10) ([2]; 60000 nM)	level (log10) ([3]; 1100 nM)	level (log10) ([3]; 3300 nM)	level (log10) ([3]; 10000 nM)	level (log10) ([4]; 6700 nM)	level (log10) ([4]; 20000 nM)	level (log10) ([4]; 60000 nM)	level (log10) ([5]; 6700 nM)	level (log10) ([5]; 20000 nM)	level (log10) ([5]; 60000 nM)	level (log10) ([6]; 6700 nM)	level (log10) ([6]; 20000 nM)	level (log10) ([6]; 60000 nM)
3C:CD141/Thrombomodulin	0.023 ± 0.0057	0.0025 ± 0.00071	0.0215 ± 0.037	0.003 ± 0.055	-0.0165 ± 0.11	-0.0245 ± 0.12	-0.0035 ± 0.026	-0.0185 ± 0.029	-0.01 ± 0.035	-0.0175 ± 0.013	-0.001 ± 0.0085	-0.0005 ± 0.019	-0.015 ± 0.0057	-0.0075 ± 0.016	-0.001 ± 0.013	-0.035 ± 0.082	-0.021 ± 0.062	-0.0435 ± 0.069
lMphg:SRB-Mphg	-0.032	-0.017 ± 0.014	0.0035 ± 0.012	-0.013 ± 0.02	0.0125 ± 0.012	0.0115 ± 0.0021	-0.0035 ± 0.00071	-0.0135 ± 0.0092	0.014 ± 0.014	-0.007 ± 0.03	-0.004 ± 0.018	0.016 ± 0.017	-0.053 ± 0.079	-0.031 ± 0.014	-0.018 ± 0.027	0.0125 ± 0.0021	-0.0025 ± 0.012	0.002 ± 0.016
MyoF:PAI-I	-0.005 ± 0.0042	0.0045 ± 0.0064	0.005 ± 0.02	-0.003 ± 0.0042	-0.0045 ± 0.0064	0.0005 ± 0.00071	0.005 ± 0.021	0.006 ± 0.0085	0.0085 ± 0.016	-0.0185 ± 0.018	-0.0215 ± 0.019	-0.0155 ± 0.00071	-0.0015 ± 0.0064	-0.004 ± 0.0028	0.0005 ± 0.011	-0.005 ± 0.0057	-0.007 ± 0.0042	-0.006 ± 0.0099
HDF3CGF:CD106/VCAM-1	-0.0485 ± 0.021	-0.0795 ± 0.005	-0.17 ± 0.013	-0.01 ± 0.027	-0.0185 ± 0.011	-0.036 ± 0.059	0.001 ± 0.017	-0.03 ± 0.021	-0.0385 ± 0.07	-0.023 ± 0.014	0.014 ± 0.035	-0.062 ± 0.057	0.02 ± 0.033	0.0365 ± 0.00071	0.017 ± 0.052	-0.0525 ± 0.069	-0.0555 ± 0.12	-0.0835 ± 0.12
MyoF:Collagen I	-0.031 ± 0.0057	-0.046 ± 0.021	-0.055 ± 0.04	-0.0165 ± 0.0078	-0.013 ± 0.0028	-0.011 ± 0.0071	-0.0495 ± 0.026	-0.0365 ± 0.0021	-0.03 ± 0.0071	-0.031 ± 0.044	-0.031 ± 0.041	0.01 ± 0.028	-0.0045 ± 0.025	-0.0165 ± 0.013	-0.0145 ± 0.0035	-0.0045 ± 0.012	-0.0065 ± 0.0092	0.008 ± 0.0028
CASM3C:CD142/Tissue Factor	0.055 ± 0.018	-0.009 ± 0.041	-0.0635 ± 0.06	0.0005 ± 0.018	-0.0175 ± 0.011	-0.051 ± 0.018	0.0095 ± 0.018	0.0085 ± 0.011	0.0025 ± 0.015	-0.014 ± 0.079	-0.028 ± 0.0014	0.0225 ± 0.046	0 ± 0.014	0 ± 0.023	0.012 ± 0.041	-0.0325 ± 0.047	-0.011	0.0385 ± 0.049
BE3C:MMP-9	-0.0425 ± 0.005	-0.0735 ± 0.0021	-0.079 ± 0.027	-0.008 ± 0.0014	0.0035 ± 0.0064	0.011 ± 0.0057	-0.0155 ± 0.0092	-0.011 ± 0.0071	-0.0145 ± 0.011	0.0015 ± 0.0078	-0.014 ± 0.013	0.009 ± 0.011	-0.001 ± 0.028	0.0005 ± 0.016	0.0015 ± 0.005	0.0085 ± 0.035	-0.024 ± 0.0042	-0.003 ± 0.03
lMphg:CD106/VCAM-1	-0.0205 ± 0.005	-0.025 ± 0.0099	-0.0935 ± 0.0064	0.0015 ± 0.0035	-0.0015 ± 0.022	-0.0085 ± 0.021	0.001 ± 0.0014	0.003 ± 0.021	0.0015 ± 0.044	-0.0025 ± 0.016	0.0005 ± 0.011	0.0005 ± 0.025	-0.024 ± 0.041	-0.0125 ± 0.033	-0.003 ± 0.048	-0.007 ± 0.011	0.0005 ± 0.0092	-0.009 ± 0.017
lMphg:IL-1alpha	-0.073 ± 0.068	-0.0565 ± 0.052	-0.043 ± 0.075	-0.051 ± 0.018	-0.0345 ± 0.029	0.027 ± 0.068	-0.0225 ± 0.021	-0.026 ± 0.016	0.0045 ± 0.0078	-0.0295 ± 0.013	-0.0105 ± 0.005	0.0075 ± 0.028	-0.011 ± 0.041	-0.012 ± 0.0085	0.0855 ± 0.047	0.0125 ± 0.07	0.022 ± 0.011	0.0125 ± 0.026
KF3CT:MMP-9	-0.029 ± 0.025	-0.031 ± 0.041	-0.078 ± 0.028	0.001 ± 0.0057	0.0055 ± 0.0092	0.0205 ± 0.013	-0.0035 ± 0.00071	-0.022 ± 0.044	-0.0125 ± 0.016	-0.033 ± 0.011	-0.0435 ± 0.028	0.002 ± 0.034	-0.003 ± 0.0028	0.009 ± 0.0014	0.058 ± 0.0099	-0.026 ± 0.025	-0.0195 ± 0.019	-0.008 ± 0.0085
lMphg:CCL3/MIP-1alpha	-0.0065 ± 0.071	-0.0015 ± 0.023	-0.0075 ± 0.016	-0.0355 ± 0.035	-0.038 ± 0.024	-0.015 ± 0.021	0.0465 ± 0.019	-0.003 ± 0.05	0.039 ± 0.041	-0.009 ± 0.0042	-0.011 ± 0.014	0.0005 ± 0.019	-0.023 ± 0.0014	-0.016 ± 0.0085	0.018 ± 0.025	0.03 ± 0.047	0.0255 ± 0.025	0.021 ± 0.035
lMphg:CD40	-0.0255 ± 0.00071	-0.0545 ± 0.0035	-0.071 ± 0.014	-0.014 ± 0.024	-0.027 ± 0.033	-0.0375 ± 0.03	0.019 ± 0.057	0.026 ± 0.076	-0.0195 ± 0.036	0.0015 ± 0.013	0.016 ± 0.0085	0.0025 ± 0.015	-0.0015 ± 0.018	-0.028 ± 0.013	-0.0405 ± 0.0078	0.0025 ± 0.016	-0.001 ± 0.041	-0.031 ± 0.041
lMphg:CD62E/E-Selectin	-0.049 ± 0.0085	-0.068 ± 0.02	-0.14 ± 0.034	-0.0175 ± 0.047	-0.0265 ± 0.057	-0.0225 ± 0.054	0.002 ± 0.0014	-0.03 ± 0.0028	-0.0275 ± 0.026	-0.0075 ± 0.022	-0.003 ± 0.013	0.0185 ± 0.0021	-0.0195 ± 0.028	-0.004 ± 0.013	-0.0075 ± 0.0064	-0.02 ± 0.038	-0.0155 ± 0.035	-0.0285 ± 0.06
lMphg:SRB	-0.0145 ± 0.013	-0.0205 ± 0.0021	-0.0205 ± 0.028	-0.008 ± 0.0099	-0.0135 ± 0.0035	-0.0055 ± 0.016	-0.005	-0.0115 ± 0.0092	-0.005 ± 0.0042	0.001 ± 0.0099	0.0015 ± 0.0035	0.004 ± 0.0071	-0.0125 ± 0.0078	-0.0115 ± 0.018	-0.0245 ± 0.00071	-0.0025 ± 0.0064	-0.0005 ± 0.0064	0.0065 ± 0.0021
CASM3C:Proliferation	-0.0475 ± 0.0035	-0.0555 ± 0.015	-0.177 ± 0.06	0.0025 ± 0.076	-0.051 ± 0.047	-0.0245 ± 0.069	0.011 ± 0.0014	-0.008 ± 0.016	-0.018 ± 0.023	0.0185 ± 0.03	0.0335 ± 0.044	0.0185 ± 0.028	-0.01 ± 0.0057	-0.024 ± 0.0099	-0.0305 ± 0.044	0.002 ± 0.013	-0.012 ± 0.0099	-0.003 ± 0.023
BE3C:SRB	-0.005 ± 0.0042	-0.0025 ± 0.0035	0.01 ± 0.0057	0.0015 ± 0.0021	0.0005 ± 0.0078	0.003 ± 0.0099	-0.0015 ± 0.0021	-0.0075 ± 0.0035	0.0105 ± 0.015	-0.004	-0.001 ± 0.0014	-0.0005 ± 0.005	-0.003 ± 0.0028	-0.0025 ± 0.0021	-0.0015 ± 0.0035	0.003 ± 0.0014	-0.001 ± 0.0057	0.018 ± 0.0085
